The values below come from patent US8252832B2, “Kinesin inhibitors as cancer therapeutics” (Novartis AG, priority 2007, dated 2012).

Structures are written as SMILES. “And” between values parts separate entries of the source, which are not always exact repeats. Equal entries are not always repeated.

Holding throughout (format): in vivo, mouse
Data set [1] deals with HCT116 tumor xenograft. Briefly: HCT116 tumor xenograft model, tumor response. How it is done:
The cell line HCT-116 has been widely used in the evaluation of mitotic inhibitors such as microtubule disruptors, mitotic kinase inhibitors and KSP inhibitors. […] Experiments were performed using outbred athymic nu/nu mice approximately 6-8 weeks old (Charles River Laboratories, Hollister, Calif.). […] Mice were housed 4-5 animals per cage in clear polycarbonate micro-isolator cages with a 12-hour light, 12-hour dark cycle at temperatures between 70-80 degrees Fahrenheit and 30-70% relative humidity. Food (Purina rodent chow pellets) and water were provided ad libitum. Mice were handled in accordance with Novartis ACUC regulations and guidelines and the ILAR Guide for the Care and Use of Laboratory Animals. Experiments were performed in an AAALAC accredited facility under an ACUC approved protocol.
Compound IIa (free base) and SB-715992 (ispinesib, a KSP inhibitor by Cytokinetics that is in clinical trials; as its free base) were formulated in 20% Captisol® for all the above doses for a dose volume of 8 mL/kg. Doses were adjusted to each animal's body weight.
Human HCT116 colon carcinoma cells were obtained from the National Cancer Institute's DCTD Tumor Repository (catalog #NCI-502568, Rockville, Md.) and tested to be free of Mycoplasma sp. and murine viruses in the IMPACT1 PCR assay panel (RADIL, University of Missouri, Columbia, Mo.). HCT116 cells were grown in RPMI 1640 with 2 mM L-glutamine (Mediatech Inc., catalog #15-040-CV) supplemented with 10% fetal bovine serum (JRH Biosciences, catalog #12003-1000M). These cells were grown as adherent cultures, maintained at 37° C. in a humidified atmosphere containing 5% carbon dioxide. Cells were cultured for fewer than 10 passages prior to use. Cells were harvested at 95% confluency, and centrifuged at ˜800×g for 5 minutes at 4° C. and then resuspended in a cold HBSS (Mediatech Inc., catalog #21-021-CV) at a concentration of 50 million cells/mL for implantation subcutaneously (injection volume of 0.1 mL).
Female nu/nu mice (Charles River, Hollister, Calif.) were injected subcutaneously in the right flank with 5 million HCT-116 tumor cells suspended in Hank's Balanced Salt Solution (HBSS) in a total volume of 0.1 mL/mouse. For the efficacy studies, mice were randomized 10 days post-implant. […] Tumor volume was calculated as (L×W2)/2. […] Percent treatment/control (T/C) values were calculated using the following formula: % T/C=100×ΔT/ΔC
All data were expressed as mean and SEM. Between-groups comparisons for final tumor measurements were performed using the one-way ANOVA pair-wise analysis. Significance was determined using Kruskal-Wallis one-way ANOVA on Ranks and Dunn's method for multiple pair-wise comparisons. Statistical analysis was carried out using SigmaStat (Systat Software Inc., San Jose, Calif.).

Data set [2] concerns MV4; 11 human AML subcutaneous xenograft tumors. The experiment in a line: Subcutaneous MV4; 11 tumor xenograft model, tumor response. How it is done:
Subcutaneous tumor efficacy studies were performed using outbred athymic nu/nu mice approximately 6-8 weeks old (Charles River Laboratories, Hollister, Calif.). The efficacy study in the disseminated disease model was performed using immunodeficient NOD-SCID female mice approximately 7-8 weeks old (Jackson Laboratories, Bar Harbor, Me.). […] Routine animal care and assurance of welfare were as described above.
Human MV4; 11 acute myelogenous leukemia cells were obtained from American Tissue Culture Collection (catalog #CRL-9591, Rockville, Md.) and tested to be free of Mycoplasma sp. and murine viruses in the IMPACT1 PCR assay panel (RADIL, University of Missouri, Columbia, Mo.). For the disseminated disease model, a stable pool of MV4; 11 cells expressing the luciferase gene was received from Fangxian Sun at the Genomics Institute of the Novartis Research Foundation in San Diego, Calif. (MV4; 11-luc). The MV4; 11 cells were grown in Iscove's modified Dulbecco's medium (Mediatech Inc., catalog #15-016-CV) supplemented with 10% fetal bovine serum (JRH Biosciences, catalog #12003-1000M), 4 mM L-glutamine and 5 ng/mL recombinant human […] (GM-CSF) (R&D Systems, catalog #215-GM). MV4; 11-luc were grown in the same media, but with the addition of 2 micrograms/mL of puromycin for selection of luciferase expression. These cells were grown as suspension cultures, maintained at 37° C. in a humidified atmosphere containing 5% carbon dioxide. Cells were cultured for fewer than 10 passages prior to use. Cells were harvested at approximately 2 million cells/mL, and centrifuged at ˜800×g for 5 minutes at 4° C. and then resuspended in a cold HBSS (Mediatech Inc., catalog #21-021-CV) at a concentration of 25 million cells/mL (containing 50% Matrigel™, BD Biosciences, catalog #354234) for implantation subcutaneously (injection volume of 0.2 mL) or at a concentration of 100 million cells/mL for implantation intravenously (i.v.) via the tail vein (injection volume of 0.1 mL). Mice were irradiated with 3 gray for 3 minutes one day prior to the i.v. cell implant.
The compound IIa (free base) and SB-715992 (free base) were formulated in 20% Captisol for a dose volume of 8 mL/kg. Doses were adjusted to each animal's body weight.
For the two efficacy evaluations in the subcutaneous tumor model, 10 million cells combined in a 1:1 mixture of HBSS and Matrigel™ were injected subcutaneously in the right flank in a total volume of 0.2 mL/mouse. […] Tumor volume was calculated as (L×W2)/2.

Data set [3] in a line: Subcutaneous KMS-11-luc tumor xenograft model, host response. How it is done: Experiments were performed using immunodeficient SCID-Beige female mice approximately 7-8 weeks old (Charles River Laboratories, Wilmington, Mass.). […] Routine animal care and assurance of welfare were as described above.
Compound IIa and SB-715992 (free base) were formulated in 20% Captisol for a dose volume of 8 mL/kg. Doses were adjusted to each animal's body weight.
For the efficacy evaluation in the subcutaneous tumor model, 10 million cells combined in a 1:1 mixture of HBSS and Matrigel™ were injected subcutaneously in the right flank in a total volume of […]. […] Tumor volume was calculated as (L×W2)/2. […] Data analysis was as described above.

Setting [4] is: Study 2, 1.8 mg/kg, Q4d × 3, i.v.
Setting [5] is: Study 2, 3.5 mg/kg, Q4d × 3, i.v.
Where [6] appears, read: Study 2, 7.5 mg/kg, Q4d × 3, i.v.

`CC(=O)O[C@H]1C(=O)[C@@]2(C)[C@H]([C@H](OC(=O)c3ccccc3)[C@]3(O)C[C@H](OC(=O)[C@H](O)[C@@H](NC(=O)c4ccccc4)c4ccccc4)C(C)=C1C3(C)C)[C@]1(OC(C)=O)CO[C@@H]1C[C@@H]2O` [Paclitaxel, reference compound]: the “Δ Tumor volume, Day 17” value in data set [1] (30 mg/kg, i.p., q4d × 3) is given as −80 ± 3 mm^3. In addition, in data set [1] (30 mg/kg, i.p., q4d × 3, D17), the “Max. % Regression (Day)” value was found to be 31%. Also, the “CR (complete tumor regressions)” value is 7 in data set [2] (1 mg/kg, q4d × 3, i.p.) and 7/9 in data set [2] (1 mg/kg, q4d × 3, i.p., listed as paclitaxel). The “Δ Tumor volume, Day 24” value in data set [2] (1 mg/kg, q4d × 3, i.p.) was −151 ± 63 mm^3. Moreover, the “% Max Regression (Day)” value in data set [2] (1 mg/kg, q4d × 3, i.p., D46) worked out at 75%. Moreover, in data set [3] (30 mg/kg, Q4d × 3, i.p.), the “Survival (alive/total)” value is recorded as 9/9.
For the compound `Cc1ccc(C(=O)N(CCCN)[C@@H](c2nc3cc(Cl)ccc3c(=O)n2Cc2ccccc2)C(C)C)cc1` [SB-715992, Ispinesib, reference compound], the “T/C, Day 24 (%)” value in data set [1] (1.75 mg/kg, i.v., q4d × 3) is recorded as 36%; in data set [1] (3.5 mg/kg, i.v., q4d × 3), 15%. Besides, the “Δ Tumor volume, Day 24” value in data set [1] (1.75 mg/kg, i.v., q4d × 3) is 395 ± 84 mm^3; in data set [1] (3.5 mg/kg, i.v., q4d × 3) it was 165 ± 60 mm^3; in data set [1] (7.5 mg/kg, i.v., q4d × 3), −145 ± 25 mm^3; in data set [2] (15 mg/kg, q4d × 3, i.v.) it was −211 ± 28 mm^3. Moreover, the “T/C, Day 17 (%)” value in data set [1] (3.5 mg/kg, i.v., q4d × 3) was 5%. Also, the “Δ Tumor volume, Day 17” value was 39 ± 4 mm^3 in data set [1] (3.5 mg/kg, i.v., q4d × 3); −177 ± 55 mm^3 in data set [1] (7.5 mg/kg, i.v., q4d × 3); −205 ± 24 mm^3 in data set [1] (15 mg/kg, i.v., q4d × 3 (only first two doses given)). Besides, the “Max. % Regression (Day)” value turned out to be 13% in data set [1] (3.5 mg/kg, i.v., q4d × 3, D7); 10% in data set [1] (3.5 mg/kg, i.v., q4d × 3, D11); 65% in data set [1] (7.5 mg/kg, i.v., q4d × 3, D17); 65% in data set [1] (7.5 mg/kg, i.v., q4d × 3, D21); 73% in data set [1] (15 mg/kg, i.v., q4d × 3 (only first two doses given), D20). Besides, the “CR (complete tumor regressions)” value was 6/9 and 6 in data set [2] (15 mg/kg, q4d × 3, i.v.); 0 in data set [2] (setting [4]); 0 in data set [2] (setting [5]); 3 in data set [2] (setting [6]). Also, the “% Max Regression (Day)” value in data set [2] (15 mg/kg, q4d × 3, i.v., D60) amounted to 98%. Moreover, the “Δ Tumor volume, Day 21” value in data set [2] (setting [4]) was 339 ± 218 mm^3; in data set [2] (setting [5]), 251 ± 132 mm^3; in data set [2] (setting [6]), −204 ± 20 mm^3. In addition, the “ΔT/ΔC, Day 21 (%)” value in data set [2] (setting [4]) worked out at 59%; in data set [2] (setting [5]), 44%. Also, the “% Max. Regression (Day)” value in data set [2] (Study 2, 3.5 mg/kg, Q4d × 3, i.v, D10) is 41 (D10) %; in data set [2] (Study 2, 7.5 mg/kg, Q4d × 3, i.v, D31), 75 (D31) %. Besides, the “Survival (alive/total)” value in data set [3] (7.5 mg/kg, Q4d × 3, i.v.) is 9/9. The “Max. Δ body weight (Day)” value in data set [3] (7.5 mg/kg, Q4d × 3, i.v., D10) was -0.96 ± 0.31 g. Moreover, the “Max. Δ body weight (Day) (%)” value in data set [3] (7.5 mg/kg, Q4d × 3, i.v., D10) was −4.8 ± 1.93%.
